Source: PubChem BioAssay (NCI)
“And” between values parts separate entries of the source, which are not always exact repeats. Equal values may be shown once.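 Dose response: 5 concentrations. Exposure: 48 h. Format: 96-well plates. Endpoint: linear interpolation; highest concentration if not reached. The concentration for 50% growth inhibition is given as GI50. Definition used: TGI = concentration required for complete inhibition of growth.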

Experiments:
Assay in all cases: DTP human tumour cell line panel, 48 h
[1] = system: NCI/ADR-RES ovarian
[2] = system: SK-MEL-28 melanoma
[3] = system: OVCAR-8 ovarian
[4] = system: SK-MEL-2 melanoma
[5] = system: CCRF-CEM leukemia
[6] = system: HT29 colon
[7] = system: LOX IMVI melanoma
[8] = system: SNB-19 CNS
[9] = system: SN12C renal
[10] = system: UO-31 renal

SMILES | GI50 [1] | TGI [1] | GI50 [2] | TGI [2] | GI50 [3] | TGI [3] | GI50 [4] [µM] | TGI [4] | GI50 [5] | TGI [5] | GI50 [6] | TGI [6] | GI50 [7] | TGI [7] | GI50 [8] | TGI [8] | GI50 [9] | TGI [9] | GI50 [10] | TGI [10]
CCCCCCOc1ccc(/C=N/Nc2cc(C)nc3ccc(Br)cc23)cc1 | 1.9 µM | 3.84 µM | 1.81 µM | 3.24 µM | 2.07 µM | 4.12 µM | 1.78 | 3.32 µM | 1.71 µM | 3.97 µM | 1.63 µM | 3.12 µM | 1.53 µM | 2.9 µM | 1.83 µM | 3.43 µM | 1.69 µM | 3.17 µM | 1.53 µM | 2.89 µM
N=C(N)c1ccc(-c2ccc(-c3ccccc3)o2)o1 | 2.82 µM | 11 µM | 1.9 µM | 4.41 µM | 4 µM | 16.9 µM | 2.25 | 4.2 µM | 3.58 µM | 12.4 µM | 2.11 µM | 4.7 µM | 1.7 µM | 3.34 µM | 3.01 µM | 10.1 µM | 3.12 µM | 10.3 µM | 1.54 µM | 3.13 µM
NC(CSC(c1ccccc1)(c1ccccc1)c1ccc(Br)cc1)C(=O)O (centres undefined) | 0.976 µM | 4.54 µM | 0.366 µM | 31.7 µM | 0.321 µM | > 51.7 µM | 14.5 | > 78.2 µM | 0.0941 µM | – | 0.399 µM | > 54.9 µM | 0.659 µM | 19.8 µM | 0.296 µM | > 76.6 µM | 0.3 µM | 49.8 µM | 12.3 µM | > 100 µM
N[C@@H](Cc1ccc(N(CCCl)CCCl)cc1)C(=O)O | 30.6 µM and 32 µM | > 100 µM and 146 µM | 68.2 µM and 27.3 µM | > 100 µM and 73.5 µM and 165 µM | 27.7 µM and 19.7 µM | > 100 µM and 50.9 µM and 110 µM | 17.4 | 33.5 µM and 112 µM | 2.47 µM and 1.96 µM | 78.9 µM and > 96.4 µM and 66.8 µM | 54.2 µM and 42.3 µM | > 100 µM and 235 µM | 6.5 µM and 11.9 µM | > 100 µM and 57.2 µM and 96.3 µM | 30.4 µM and 23 µM | > 100 µM and 41.6 µM and 204 µM | 3.73 µM and 9.39 µM | > 100 µM and > 68.3 µM and 161 µM | 12.9 µM and 29.6 µM | 65.2 µM and 81.2 µM and 123 µM
Nc1nc(-c2ccccc2Cl)cc(-c2ccc(Cl)cc2Cl)n1 | 14.8 µM | > 100 µM | 20.9 µM | > 100 µM | 6.87 µM | > 100 µM | 6.1 | 44.8 µM | 4.17 µM | > 100 µM | 4.32 µM | 24.3 µM | 4.89 µM | > 100 µM | 16.1 µM | > 100 µM | 13.1 µM | > 100 µM | 13.5 µM | > 100 µM
Cn1cc(C2=C(c3cn(CCCN/C(N)=N\[N+](=O)[O-])c4ccccc34)C(=O)NC2=O)c2ccccc21 | > 25 µM | > 25 µM | 3.38 µM | 18.5 µM | 3.98 µM | > 18.5 µM | 0.614 | 2.23 µM | 0.0877 µM | 6.63 µM | 2.87 µM | 12.6 µM | 0.949 µM | 21.6 µM | 4.4 µM | 19 µM | 2.65 µM | 16.6 µM | 8.71 µM | 24.7 µM
COC(=O)/C=C/c1cc(OC)c2c(c1)[C@@H](C(=O)OC)[C@H](c1ccc(OC)c(OC)c1)O2 | 0.768 µM | > 100 µM | 26.4 µM | > 100 µM | 4.53 µM | > 100 µM | 2.8 | > 100 µM | 0.983 µM | > 100 µM | 0.505 µM | > 100 µM | 0.771 µM | > 100 µM | 8.64 µM | > 100 µM | 6.44 µM | > 100 µM | 3.4 µM | > 100 µM
